Data from the supplement of paper PMC5908809.

How the values were obtained:
[1] = test system: normal NK cells expanded with K562-aAPC; assay: percent inhibition of viability; higher = more inhibition; conditions: 72 h, IL-2 2.5 ng/mL
Method: (§1)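 Drug sensitivity and resistance testing on K562-aAPC-expanded normal NK cells: 5 concentrations (10-fold steps over a 10,000-fold range), 72 h at 37 °C, viability by CellTiter-Glo normalised to DMSO and benzethonium chloride controls; DSS from the fitted curve.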

DERL-7 (IL-2 2.5 ng/mL) [2] = assay: as above; conditions: 72 h
IMC-1 (IL-2 20 ng/mL) [3] = assay: as above; conditions: 72 h
KAI3 (IL-2 2.5 ng/mL) [4] = assay: as above; conditions: 72 h
KHYG-1 (IL-2 2.5 ng/mL) [5] = assay: as above; conditions: 72 h
NK-92 (IL-2 2.5 ng/mL) [6] = assay: as above; conditions: 72 h
NK-YS (IL-2 2.5 ng/mL) [7] = assay: as above; conditions: 72 h
NKL (IL-2 2.5 ng/mL) [8] = assay: as above; conditions: 72 h
SNK-6 (IL-2 2.5 ng/mL) [9] = assay: as above; conditions: 72 h
YT (IL-2 2.5 ng/mL) [10] = assay: as above; conditions: 72 h
[11] = test system: normal primary NK cells, pool 1 (3 donors) (IL-2 2.5 ng/mL); assay: as above; conditions: 72 h
[12] = test system: normal primary NK cells, pool 1 (3 donors), resting (IL-2 0 ng/mL); assay: as above; conditions: 72 h
[13] = test system: normal primary NK cells, pool 2 (3 donors) (IL-2 2.5 ng/mL); assay: as above; conditions: 72 h
[14] = test system: normal primary NK cells, pool 3 (3 donors) (IL-2 2.5 ng/mL); assay: as above; conditions: 72 h
[15] = test system: normal NK cells expanded with K562-aAPC; assay: drug sensitivity score (DSS) (DSS units); higher = more sensitive; extreme values may be limits of the assay; conditions: 72 h; IL-2 2.5 ng/mL
Method: as §1

DERL-7 (IL-2 2.5 ng/mL) [16] = assay: as above; conditions: 72 h
IMC-1 (IL-2 20 ng/mL) [17] = assay: as above; conditions: 72 h
KAI3 (IL-2 2.5 ng/mL) [18] = assay: as above; conditions: 72 h
KHYG-1 (IL-2 2.5 ng/mL) [19] = assay: as above; conditions: 72 h
NK-92 (IL-2 2.5 ng/mL) [20] = assay: as above; conditions: 72 h
NK-YS (IL-2 2.5 ng/mL) [21] = assay: as above; conditions: 72 h
NKL (IL-2 2.5 ng/mL) [22] = assay: as above; conditions: 72 h
SNK-6 (IL-2 2.5 ng/mL) [23] = assay: as above; conditions: 72 h
YT (IL-2 2.5 ng/mL) [24] = assay: as above; conditions: 72 h
[25] = test system: normal primary NK cells, pool 1 (3 donors) (IL-2 2.5 ng/mL); assay: as above; conditions: 72 h
[26] = test system: normal primary NK cells, pool 1 (3 donors), resting (IL-2 0 ng/mL); assay: as above; conditions: 72 h
[27] = test system: normal primary NK cells, pool 2 (3 donors) (IL-2 2.5 ng/mL); assay: as above; conditions: 72 h
[28] = test system: normal primary NK cells, pool 3 (3 donors) (IL-2 2.5 ng/mL); assay: as above; conditions: 72 h

CS(=O)(=O)N1CCN(Cc2cc3nc(-c4cccc5[nH]ncc45)nc(N4CCOCC4)c3s2)CC1 [Pictilisib] (max concentration tested 10000 nM)
percent inhibition of viability [%]
Conditions | 1 nM | 10 nM | 100 nM | 1000 nM | 10000 nM
DERL-7 (IL-2 2.5 ng/mL) [2] | 0.8 | 4.11 | 16.1 | 57.5 | 87.1
IMC-1 (IL-2 20 ng/mL) [3] | -6.08 | -5.88 | -14.1 | -27.2 | -37
KAI3 (IL-2 2.5 ng/mL) [4] | -6.58 | 2.21 | 8.79 | 17.4 | 52.6
KHYG-1 (IL-2 2.5 ng/mL) [5] | -3.48 | -3.66 | -5.51 | 9.17 | 62.5
NK-92 (IL-2 2.5 ng/mL) [6] | 4.34 | 0.31 | 30.3 | 36.6 | 73.9
NK-YS (IL-2 2.5 ng/mL) [7] | 0.04 | 3.57 | 4.67 | 27.4 | 64.3
NKL (IL-2 2.5 ng/mL) [8] | -16 | -14.4 | -0.35 | 45.4 | 73.1
SNK-6 (IL-2 2.5 ng/mL) [9] | 9.42 | 16.7 | -3.54 | 3.83 | 42
YT (IL-2 2.5 ng/mL) [10] | -3.11 | -1.03 | 5.07 | 24.7 | 62
[1] | 2.02 | 0.78 | 10.8 | 25.4 | 51.1
[11] | -12 | -5.63 | 1.66 | 32.2 | 72.9
[12] | -0.3 | -14.8 | 0.53 | 45.2 | 63.4
[13] | -12.1 | 3.86 | 0.41 | 8.6 | 55.1
[14] | -9.78 | -13.3 | -0.72 | 3.18 | 37.3

Conditions | drug sensitivity score
DERL-7 (IL-2 2.5 ng/mL) [16] | 12.9
IMC-1 (IL-2 20 ng/mL) [17] | 0
KAI3 (IL-2 2.5 ng/mL) [18] | 4.66
KHYG-1 (IL-2 2.5 ng/mL) [19] | 4.95
NK-92 (IL-2 2.5 ng/mL) [20] | 11
NK-YS (IL-2 2.5 ng/mL) [21] | 6.66
NKL (IL-2 2.5 ng/mL) [22] | 9.46
SNK-6 (IL-2 2.5 ng/mL) [23] | 2.73
YT (IL-2 2.5 ng/mL) [24] | 6.22
[15] | 5.88
[25] | 8.06
[26] | 8.8
[27] | 4.41
[28] | 2.3

C[C@]12CC[C@@H]3c4ccc(O)cc4C[C@@H](CCCCCCCCC[S+]([O-])CCCC(F)(F)C(F)(F)F)[C@H]3[C@@H]1CC[C@@H]2O (some centres not stated) [Fulvestrant] (max concentration tested 1000 nM)
percent inhibition of viability [%]
Conditions | 0.1 nM | 1 nM | 10 nM | 100 nM | 1000 nM
DERL-7 (IL-2 2.5 ng/mL) [2] | -6.65 | 4.87 | 1.14 | -1.33 | 2.61
IMC-1 (IL-2 20 ng/mL) [3] | -8.22 | -3.8 | -1.67 | -1.37 | 16.7
KAI3 (IL-2 2.5 ng/mL) [4] | -10.2 | -0.09 | 8.43 | 5.9 | 26.5
KHYG-1 (IL-2 2.5 ng/mL) [5] | -10.8 | -4.41 | -2.37 | -6.26 | 7.16
NK-92 (IL-2 2.5 ng/mL) [6] | -8.22 | -4.79 | -0.7 | -0.61 | 35.1
NK-YS (IL-2 2.5 ng/mL) [7] | -4.05 | -5.76 | -3.52 | 0.56 | 15.3
NKL (IL-2 2.5 ng/mL) [8] | -3.73 | 1.23 | 1.02 | 9.49 | 38.2
SNK-6 (IL-2 2.5 ng/mL) [9] | -16.9 | 6.87 | -25.7 | -23.9 | -13.9
YT (IL-2 2.5 ng/mL) [10] | -6.18 | 3.96 | 7.53 | -1.76 | 28.7
[1] | -7.38 | -10.5 | -9.28 | -0.53 | 6.13
[11] | -3.4 | -8.82 | 2.76 | -0.05 | -2.99
[12] | 7.52 | -6.84 | 15.3 | 7.9 | 31.3
[13] | -0.86 | -4.87 | 4.79 | 2.49 | 3.75
[14] | 6.08 | 3.62 | 2.89 | -5.25 | -3.36

Conditions | drug sensitivity score
DERL-7 (IL-2 2.5 ng/mL) [16] | 0
IMC-1 (IL-2 20 ng/mL) [17] | 0.29
KAI3 (IL-2 2.5 ng/mL) [18] | 1.68
KHYG-1 (IL-2 2.5 ng/mL) [19] | 0
NK-92 (IL-2 2.5 ng/mL) [20] | 1.6
NK-YS (IL-2 2.5 ng/mL) [21] | 0.29
NKL (IL-2 2.5 ng/mL) [22] | 3.35
SNK-6 (IL-2 2.5 ng/mL) [23] | 0
YT (IL-2 2.5 ng/mL) [24] | 1.09
[15] | 0
[25] | 0
[26] | 2.33
[27] | 0
[28] | 0

CC(C)n1cnc2c(NCCc3ccc(O)cc3)nc(-c3csc4ccccc34)nc21 [StemRegenin 1] (max concentration tested 10000 nM)
percent inhibition of viability [%]
Conditions | 1 nM | 10 nM | 100 nM | 1000 nM | 10000 nM
DERL-7 (IL-2 2.5 ng/mL) [2] | 2.23 | 15.4 | 50.9 | 71.1 | 96.4
IMC-1 (IL-2 20 ng/mL) [3] | -6.67 | -2.1 | -7.77 | -8.29 | 0.67
KAI3 (IL-2 2.5 ng/mL) [4] | -8.14 | 3.68 | 6.57 | -0.19 | 76.8
KHYG-1 (IL-2 2.5 ng/mL) [5] | -5.41 | -0.83 | 0.98 | 8.59 | 98.9
NK-92 (IL-2 2.5 ng/mL) [6] | -11 | -16.6 | 1.48 | 39.2 | 97.7
NK-YS (IL-2 2.5 ng/mL) [7] | -3.67 | -6.84 | -5.59 | 1.14 | 24.9
NKL (IL-2 2.5 ng/mL) [8] | -9.52 | 0.88 | 5.6 | 18.4 | 80.4
SNK-6 (IL-2 2.5 ng/mL) [9] | -6.98 | 28.7 | -5.97 | -12.5 | 71.9
YT (IL-2 2.5 ng/mL) [10] | -5.32 | -2.81 | 0.29 | 5.57 | 71.9
[1] | -5.56 | -5.75 | -5.39 | -7.57 | 0.59
[11] | -8.25 | -4.37 | -0.27 | 7.52 | 45
[12] | -11.7 | -11.1 | 15.2 | 12.3 | 74.7
[13] | -1.53 | -2.41 | -0.22 | -2.53 | 54.6
[14] | -3.75 | -2.11 | -2.9 | -0.23 | 36

Conditions | drug sensitivity score
DERL-7 (IL-2 2.5 ng/mL) [16] | 21.1
IMC-1 (IL-2 20 ng/mL) [17] | 0
KAI3 (IL-2 2.5 ng/mL) [18] | 4.25
KHYG-1 (IL-2 2.5 ng/mL) [19] | 6.85
NK-92 (IL-2 2.5 ng/mL) [20] | 10.6
NK-YS (IL-2 2.5 ng/mL) [21] | 1.09
NKL (IL-2 2.5 ng/mL) [22] | 7.36
SNK-6 (IL-2 2.5 ng/mL) [23] | 3.24
YT (IL-2 2.5 ng/mL) [24] | 4.83
[15] | 0
[25] | 3.58
[26] | 6.2
[27] | 2.7
[28] | 1.7
